Each compound was assayed against T1, TRPC5 (Homo sapiens, UniProt Q9UL62) (assay: TRPC5 Fluorescence Assay - FLIPR format (HEK-TREx hTRPC5, Riluzole stimulation)). Conditions: Table 9, read-out: hTRPCS-FLIPR IC50.
T1 construct: expressed in transfected cells; host or cells: HEK 293
T1 sequence (Q9UL62 1-973): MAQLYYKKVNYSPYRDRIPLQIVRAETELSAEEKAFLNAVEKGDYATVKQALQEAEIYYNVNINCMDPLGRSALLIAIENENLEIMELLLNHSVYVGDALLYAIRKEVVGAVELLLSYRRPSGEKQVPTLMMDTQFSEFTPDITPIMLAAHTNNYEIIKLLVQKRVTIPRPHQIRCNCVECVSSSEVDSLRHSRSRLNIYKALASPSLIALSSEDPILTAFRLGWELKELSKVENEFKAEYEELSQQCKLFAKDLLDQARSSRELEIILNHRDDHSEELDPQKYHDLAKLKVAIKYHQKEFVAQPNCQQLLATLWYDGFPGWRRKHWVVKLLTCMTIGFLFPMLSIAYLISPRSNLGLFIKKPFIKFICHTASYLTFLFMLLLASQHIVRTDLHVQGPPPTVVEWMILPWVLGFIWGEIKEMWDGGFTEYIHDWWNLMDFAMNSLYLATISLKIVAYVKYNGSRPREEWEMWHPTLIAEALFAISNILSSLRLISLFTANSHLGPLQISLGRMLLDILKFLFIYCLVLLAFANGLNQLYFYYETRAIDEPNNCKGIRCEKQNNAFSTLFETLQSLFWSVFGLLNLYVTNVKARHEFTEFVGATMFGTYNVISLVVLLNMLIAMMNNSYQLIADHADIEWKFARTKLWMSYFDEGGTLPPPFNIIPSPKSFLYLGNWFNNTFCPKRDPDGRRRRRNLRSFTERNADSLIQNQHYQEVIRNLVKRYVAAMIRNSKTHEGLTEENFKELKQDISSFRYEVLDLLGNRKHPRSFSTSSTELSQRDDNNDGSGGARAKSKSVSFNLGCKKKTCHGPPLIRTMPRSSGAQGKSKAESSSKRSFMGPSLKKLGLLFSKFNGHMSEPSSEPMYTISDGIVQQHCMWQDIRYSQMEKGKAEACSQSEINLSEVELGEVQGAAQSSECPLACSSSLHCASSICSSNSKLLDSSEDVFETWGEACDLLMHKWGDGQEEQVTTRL
Type: cell-based
Procedure, shortened: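 Tetracycline-induced HEK-TREx hTRPC5 cells loaded with Fluo-4 AM in EBSS were preincubated 5 min with compound (final 30 μM to 0.0001 μM, 0.3% DMSO), then stimulated with 30 μM Riluzole. Peak fluorescence over 5 min gave % inhibition, normalised to a 1 μM reference inhibitor.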

IC50, 0.01 to 1000 nM:
C[C@@H](c1ccccc1C(F)(F)F)N1CCN(c2cn[nH]c(=O)c2Cl)CC1=O [drawing 1044]
C[C@@H](c1ccc(F)cc1C(F)(F)F)N1CCN(c2cn[nH]c(=O)c2Cl)CC1=O [drawing 1049]
C[C@H](c1ccc(F)cc1C(F)(F)F)N1C[C@@H](C)N(c2cn[nH]c(=O)c2Cl)CC1=O [drawing 1048]

Same assay, conditions: Table 10, read-out: TRPCS-FLIPR IC50

IC50, 0.01 to 1000 nM:
CCS(=O)(=O)c1nc2c(n1Cc1ccccc1C(F)(F)F)CCN(c1cn[nH]c(=O)c1Cl)C2 [drawing 1079]
CCN(c1ncc2c(n1)CN(c1cn[nH]c(=O)c1Cl)C2)c1ccccc1Cl [drawing 1148]
O=c1[nH]ncc(N2CCc3c(Cc4ccc(F)cc4C(F)(F)F)n[nH]c3C2)c1Cl [drawing 1153]
CS(=O)(=O)c1nc2c(n1Cc1ccccc1C(F)(F)F)CCN(c1cn[nH]c(=O)c1Cl)C2 [drawing 1142]
CC(c1ccc(F)cc1C(F)F)n1nc(C(N)=O)c2c1CCN(c1cn[nH]c(=O)c1Cl)C2 (centres unmarked) [drawing 1114]
CNC(=O)c1nn([C@H](C)c2ccccc2C(F)F)c2c1CN(c1cn[nH]c(=O)c1Cl)CC2 [drawing 1113]
COCc1ccccc1Cn1cnc2c1CCN(c1cn[nH]c(=O)c1Cl)C2 [drawing 1053]
C[C@@H](c1ccccc1Cl)n1nnc2c1CCN(c1cn[nH]c(=O)c1Cl)C2 [drawing 1140]
C[C@H](c1ccccc1C(F)(F)F)n1nnc2c1CCN(c1cn[nH]c(=O)c1Cl)[C@H]2C [drawing 1078]
O=c1[nH]ncc(N2CCc3c(c(=O)[nH]n3Cc3ccccc3C(F)(F)F)C2)c1Cl [drawing 1081]
CCc1ncccc1N(C)c1ncc2c(n1)CN(c1cn[nH]c(=O)c1Cl)C2 [drawing 1154]
C[C@@H](c1cccnc1CC(F)F)n1nnc2c1CCN(c1cn[nH]c(=O)c1Cl)C2 [drawing 1125]
[2H]c1nc2c(n1Cc1ccccc1C(F)(F)F)CCN(c1cn[nH]c(=O)c1Cl)C2
CNC(=O)c1nc2c(n1Cc1ccccc1C(F)(F)F)CCN(c1cn[nH]c(=O)c1Cl)C2 [drawing 1134]
C[C@@H](c1ccccc1C(F)F)n1nnc2c1CCN(c1cn[nH]c(=O)c1Cl)C2 [drawing 1106]
C[C@H](c1ccc(F)cc1C(F)(F)F)n1nnc2c1CCN(c1cn[nH]c(=O)c1Cl)[C@H]2C [drawing 1092]
C[C@@H](c1ccc(F)cc1C(F)F)n1nnc2c1CCN(c1cn[nH]c(=O)c1Cl)C2 [drawing 1107]
C[C@H](c1ccccc1C(F)(F)F)n1nc(C(N)=O)c2c1CCN(c1cn[nH]c(=O)c1Cl)C2 [drawing 1123]
CNC(=O)c1nn(Cc2ccc(F)cc2C(F)F)c2c1CN(c1cn[nH]c(=O)c1Cl)CC2 [drawing 1117]
C[C@H](c1ccccc1Cl)n1nnc2c1CCN(c1cn[nH]c(=O)c1Cl)C2 [drawing 1133]
C[C@@H]1Cc2c(c(C(N)=O)nn2Cc2ccccc2C(F)(F)F)CN1c1cn[nH]c(=O)c1Cl [drawing 1118]
C[C@H](c1ccccc1C(F)F)n1nnc2c1CCN(c1cn[nH]c(=O)c1Cl)C2 [drawing 1100]
COCc1ncccc1Cn1cnc2c1CCN(c1cn[nH]c(=O)c1Cl)C2 [drawing 1065]
O=c1[nH]ncc(N2CCc3c(ncn3Cc3ccccc3Cl)C2)c1Cl [drawing 1139]
O=c1[nH]ncc(N2CCc3c(nnn3Cc3ccc(F)cc3CC(F)(F)F)C2)c1Cl [drawing 1131]
CN(c1ncc2c(n1)CN(c1cn[nH]c(=O)c1Cl)C2)c1ccc(F)cc1Cl [drawing 1144]
O=c1[nH]ncc(N2CCc3c(ncn3Cc3ccc(F)cc3Cl)C2)c1Cl [drawing 1136]
C[C@@H]1Cc2c(nnn2[C@@H](C)c2ccc(F)cc2C(F)(F)F)CN1c1cn[nH]c(=O)c1Cl [drawing 1085]
C[C@H](c1ccc(F)cc1C(F)F)n1nc(C(N)=O)c2c1CCN(c1cn[nH]c(=O)c1Cl)C2
COC[C@H](c1ccccc1C(F)(F)F)n1cnc2c1CCN(c1cn[nH]c(=O)c1Cl)C2 [drawing 1120]
NC(=O)c1nc2c(n1Cc1ccccc1C(F)(F)F)CCN(c1cn[nH]c(=O)c1Cl)C2 [drawing 1135]
C[C@@H]1Cc2c(nnn2[C@@H](C)c2ccccc2C(F)(F)F)CN1c1cn[nH]c(=O)c1Cl [drawing 1071]

From US20260184708A1, “PYRIDAZINONES AND METHODS OF USE THEREOF” (GFB (ABC), LLC, priority 2017, published 2026)
